In ChEMBL document CHEMBL4376829, “Discovery and biological evaluation of vinylsulfonamide derivatives as highly potent, covalent TEAD autopalmitoylation inhibitors” (Eur J Med Chem, 2019):

Legend:
[1] = molecular target: Interferon-induced, double-stranded RNA-activated protein kinase (Homo sapiens) (UniProt P19525); assay: Inhibition of recombinant human PKR (252 to end residues) at 10 uM using RSRSRSRSRSRSRSR as substrate measured after 40 mins in presence of [gamma33P]ATP by scintillation counting method relative to control
[2] = molecular target: Serine/threonine-protein kinase 4 (Homo sapiens) (UniProt Q13043); assay: Inhibition of recombinant full-length human MST1 at 10 uM using KKSRGDYMTMQIG as substrate measured after 40 mins in presence of [gamma33P]ATP by scintillation counting method relative to control
[3] = molecular target: Insulin-like growth factor 1 receptor (Homo sapiens) (UniProt P08069); assay: Inhibition of recombinant human IGF1R (959 to end residues) at 10 uM using KKKSPGEYVNIEFG as substrate after 40 mins in presence of [gamma33P]ATP by scintillation counting method relative to control
[4] = molecular target: Ephrin type-B receptor 4 (Homo sapiens) (UniProt P54760); assay: Inhibition of human EphB4 (561 to end residues) using poly (Glu, Tyr) 4:1 as substrate at 10 uM after 40 mins in presence of [gamma-33P]-ATP by scintillation counting relative to control
[5] = molecular target: Cyclin-dependent kinase 14/Cyclin-Y (Homo sapiens) (UniProt O94921+Q8ND76); assay: Inhibition of human CDK14/cyclinY at 10 uM by radiometric assay relative to control; format: protein-complex assay
[6] = molecular target: Tyrosine-protein kinase ABL2 (Homo sapiens) (UniProt P42684); assay: Inhibition of recombinant human ARG (38 to end residues) at 10 uM using EAIYAAPFAKKK as substrate measured after 40 mins in presence of [gamma33P]ATP by scintillation counting method relative to control
[7] = molecular target: Serine/threonine-protein kinase D2 (Homo sapiens) (UniProt Q9BZL6); assay: Inhibition of full-length recombinant human PKD2 at 10 uM using KKLNRTLSVA as substrate after 40 mins by in presence of [gamma33P]ATP by scintillation counting method relative to control
[8] = molecular target: Serine/threonine-protein kinase ULK2 (Homo sapiens) (UniProt Q8IYT8); assay: Inhibition of recombinant human ULK2 (1 to 306 residues) at 10 uM using casein as substrate measured after 40 mins in presence of [gamm33P]ATP by scintillation counting method relative to control
[9] = molecular target: Wee1-like protein kinase (Homo sapiens) (UniProt P30291); assay: Inhibition of recombinant human Wee1 (214 to end residues) at 10 uM using LSNLYHQGKFLQTFCGSPLYRRR as substrate measured after 40 mins in presence of [gamm33P]ATP by scintillation counting method relative to control
[10] = molecular target: Bromodomain-containing protein 4 (Homo sapiens) (UniProt O60885); assay: Inhibition of human BRD4-BD1 at 10 uM relative to control
[11] = molecular target: Insulin receptor (Homo sapiens) (UniProt P06213); assay: Inhibition of recombinant human IR activated (1005 to 1310 residues) at 10 uM using KKSRGDYMTMQIG as substrate after 40 mins in presence of [gamma33P]ATP by scintillation counting method relative to control
[12] = molecular target: Ribosomal protein S6 kinase alpha-1 (Homo sapiens) (UniProt Q15418); assay: Inhibition of full length recombinant human Rsk1 at 10 uM using KKKNRTLSVA as substrate after 40 mins in presence of [gamma33P]ATP by scintillation counting method relative to control
[13] = tested on: TGF-beta receptor type-1 (Homo sapiens), P36897 [T204D]; assay: Inhibition of recombinant human TGFBR1 T204D mutant (200 to end residues) at 10 uM using casein as substrate measured after 40 mins in presence of [gamm33P]ATP by scintillation counting method relative to control
[14] = molecular target: 3-phosphoinositide-dependent protein kinase 1 (Homo sapiens) (UniProt O15530); assay: Inhibition of recombinant human PDK1 (52 to end residues) at 10 uM using KTFCGTPEYLAPEVRREPRILSEEEQEMFRDFDYIADWC as substrate measured after 40 mins in presence of [gamma33P]ATP by scintillation counting method relative to control
[15] = molecular target: Cyclin-dependent kinase 5/CDK5 activator 1 (Homo sapiens) (UniProt Q00535+Q15078); assay: Inhibition of recombinant full-length human CDK5/p25 at 10 uM using histone H1 as substrate measured after 40 mins in presence of [gamma33P]ATP by scintillation counting method relative to control; format: protein-complex assay
Homo sapiens [16] = organism: Homo sapiens; assay: Inhibition of recombinant human Flt4 V1128L/H1146R mutant (800 to end residues) at 10 uM using GGEEEEYFELVKKKK as substrate measured after 40 mins in presence of [gamma33P]ATP by scintillation counting method relative to control
[17] = molecular target: Mitogen-activated protein kinase kinase kinase kinase 3 (Homo sapiens) (UniProt Q8IVH8); assay: Inhibition of recombinant human MAP4K3 (1 to 291 residues) at 10 uM using RLGRDKYKTLRQIRQ as substrate measured after 40 mins in presence of [gamma33P]ATP by scintillation counting method relative to control
[18] = molecular target: Epidermal growth factor receptor (Homo sapiens) (UniProt P00533); assay: Inhibition of recombinant human EGFR (696 to end residues) at 10 uM using poly(Glu, Tyr) as substrate measured after 40 mins in presence of [gamma33P]ATP by scintillation counting method relative to control
[19] = molecular target: Serine/threonine-protein kinase N2 (Homo sapiens) (UniProt Q16513); assay: Inhibition of human PRK2 (501 to end residues) at 10 uM using AKRRRLSSLRA as substrate measured after 40 mins in presence of [gamma33P]ATP by scintillation counting method relative to control
[20] = tested on: CDK18/Cyclin Y (Homo sapiens), Q07002+Q8ND76 [T166M]; assay: Inhibition of recombinant full length human cyclinY/CDK18 T166M mutant at 10 uM using YRRAAVPPSPSLS as substrate measured after 40 mins in presence of [gamma33P]ATP by scintillation counting method relative to control; format: protein-complex assay
[21] = molecular target: Macrophage colony-stimulating factor 1 receptor (Homo sapiens) (UniProt P07333); assay: Inhibition of recombinant human FMS (538 to end residues) at 10 uM using KKKSPGEYVNIEFG as substrate after 40 mins in presence of [gamma33P]ATP by scintillation counting method relative to control
[22] = molecular target: Insulin-like growth factor 1 receptor (Homo sapiens) (UniProt P08069); assay: Inhibition of recombinant human IGF1R activated (959 to end residues) at 10 uM using KKKSPGEYVNIEF as substrate after 40 mins in presence of [gamma33P]ATP by scintillation counting method relative to control
Homo sapiens [23] = organism: Homo sapiens; assay: Inhibition of recombinant human Plk4 S34T mutant (1 to 273 residues) at 10 uM using casein as substrate measured after 120 mins in presence of [gamma33P]ATP by scintillation counting method relative to control

Chain of Insulin-like growth factor 1 receptor (Homo sapiens) (P08069 31-736 limits assumed): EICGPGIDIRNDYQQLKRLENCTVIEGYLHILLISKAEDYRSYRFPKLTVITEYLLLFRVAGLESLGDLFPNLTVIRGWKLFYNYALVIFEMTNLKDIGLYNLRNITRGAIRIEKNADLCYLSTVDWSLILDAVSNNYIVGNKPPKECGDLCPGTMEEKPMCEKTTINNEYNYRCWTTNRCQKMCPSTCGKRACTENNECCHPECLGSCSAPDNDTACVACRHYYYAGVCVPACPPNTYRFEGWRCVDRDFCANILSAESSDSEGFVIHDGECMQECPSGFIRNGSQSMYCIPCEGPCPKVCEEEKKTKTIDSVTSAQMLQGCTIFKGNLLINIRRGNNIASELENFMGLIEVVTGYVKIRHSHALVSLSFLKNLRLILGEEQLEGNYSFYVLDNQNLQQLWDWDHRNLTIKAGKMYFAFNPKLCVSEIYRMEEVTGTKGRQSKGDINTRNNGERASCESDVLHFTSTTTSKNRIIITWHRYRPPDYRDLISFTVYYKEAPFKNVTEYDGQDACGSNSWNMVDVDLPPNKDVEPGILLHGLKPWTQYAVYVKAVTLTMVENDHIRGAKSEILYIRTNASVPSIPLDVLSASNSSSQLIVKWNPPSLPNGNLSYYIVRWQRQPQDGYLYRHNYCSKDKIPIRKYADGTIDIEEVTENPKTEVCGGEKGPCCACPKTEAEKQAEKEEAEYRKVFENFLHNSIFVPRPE
Chain of Insulin-like growth factor 1 receptor (Homo sapiens) (P08069 741-1367 limits assumed): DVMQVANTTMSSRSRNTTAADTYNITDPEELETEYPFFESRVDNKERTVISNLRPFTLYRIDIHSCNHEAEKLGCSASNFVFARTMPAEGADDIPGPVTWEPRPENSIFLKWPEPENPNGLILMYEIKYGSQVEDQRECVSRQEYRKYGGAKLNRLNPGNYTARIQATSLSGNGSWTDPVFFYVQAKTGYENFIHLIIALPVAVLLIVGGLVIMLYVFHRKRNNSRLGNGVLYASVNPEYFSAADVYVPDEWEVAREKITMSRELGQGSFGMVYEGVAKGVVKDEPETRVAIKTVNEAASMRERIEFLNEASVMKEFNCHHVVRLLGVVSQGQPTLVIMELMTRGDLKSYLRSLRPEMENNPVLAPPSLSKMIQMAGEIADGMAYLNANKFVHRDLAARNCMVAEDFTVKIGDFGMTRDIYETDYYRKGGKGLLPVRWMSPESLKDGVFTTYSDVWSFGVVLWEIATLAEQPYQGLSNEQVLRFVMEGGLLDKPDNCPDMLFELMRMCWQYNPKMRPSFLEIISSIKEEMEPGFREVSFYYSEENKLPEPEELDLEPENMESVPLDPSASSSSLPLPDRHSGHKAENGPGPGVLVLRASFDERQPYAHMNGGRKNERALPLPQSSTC
Chain of Tyrosine-protein kinase ABL2 (Homo sapiens) (P42684 whole entry): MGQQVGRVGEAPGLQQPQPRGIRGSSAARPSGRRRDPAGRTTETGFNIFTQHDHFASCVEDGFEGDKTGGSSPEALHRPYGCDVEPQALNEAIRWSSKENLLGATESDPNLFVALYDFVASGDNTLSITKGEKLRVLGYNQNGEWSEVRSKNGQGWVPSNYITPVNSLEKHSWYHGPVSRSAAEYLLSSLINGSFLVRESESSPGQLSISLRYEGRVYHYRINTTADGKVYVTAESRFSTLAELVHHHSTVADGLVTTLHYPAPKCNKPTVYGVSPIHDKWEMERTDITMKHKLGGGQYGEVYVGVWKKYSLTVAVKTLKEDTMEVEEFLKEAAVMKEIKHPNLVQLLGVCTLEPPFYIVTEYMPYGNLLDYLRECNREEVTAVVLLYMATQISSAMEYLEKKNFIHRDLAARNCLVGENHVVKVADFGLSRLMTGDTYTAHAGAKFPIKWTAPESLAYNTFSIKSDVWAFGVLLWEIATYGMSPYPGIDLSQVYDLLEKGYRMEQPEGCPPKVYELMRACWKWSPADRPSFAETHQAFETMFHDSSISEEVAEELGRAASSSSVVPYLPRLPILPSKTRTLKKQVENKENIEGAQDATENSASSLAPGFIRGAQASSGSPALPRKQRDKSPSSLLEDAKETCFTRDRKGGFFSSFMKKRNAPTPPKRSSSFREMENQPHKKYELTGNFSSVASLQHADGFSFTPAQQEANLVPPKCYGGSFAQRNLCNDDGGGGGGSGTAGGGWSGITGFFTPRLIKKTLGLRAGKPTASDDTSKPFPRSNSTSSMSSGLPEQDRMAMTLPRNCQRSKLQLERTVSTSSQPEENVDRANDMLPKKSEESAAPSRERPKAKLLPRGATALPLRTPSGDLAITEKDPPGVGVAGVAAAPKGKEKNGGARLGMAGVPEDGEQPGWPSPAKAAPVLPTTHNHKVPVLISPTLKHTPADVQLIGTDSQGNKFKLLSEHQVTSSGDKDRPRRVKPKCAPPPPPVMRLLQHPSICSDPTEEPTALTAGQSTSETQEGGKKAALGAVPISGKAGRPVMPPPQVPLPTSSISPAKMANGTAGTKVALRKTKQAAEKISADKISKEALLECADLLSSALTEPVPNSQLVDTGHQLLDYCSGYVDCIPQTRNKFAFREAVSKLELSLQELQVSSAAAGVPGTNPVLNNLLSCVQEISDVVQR
Chain of Cyclin-dependent kinase 5/CDK5 activator 1 (Homo sapiens) (Q00535 whole entry): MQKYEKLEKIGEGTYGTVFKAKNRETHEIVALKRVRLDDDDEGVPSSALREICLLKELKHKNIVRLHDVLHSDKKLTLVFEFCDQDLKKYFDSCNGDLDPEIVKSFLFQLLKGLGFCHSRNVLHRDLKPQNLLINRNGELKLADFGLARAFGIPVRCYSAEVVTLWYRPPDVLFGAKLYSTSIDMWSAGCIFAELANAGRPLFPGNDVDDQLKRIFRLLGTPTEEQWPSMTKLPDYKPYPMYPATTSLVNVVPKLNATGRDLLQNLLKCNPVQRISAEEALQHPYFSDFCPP
Chain of Cyclin-dependent kinase 5/CDK5 activator 1 (Homo sapiens) (Q15078 99-307 partner limits assumed): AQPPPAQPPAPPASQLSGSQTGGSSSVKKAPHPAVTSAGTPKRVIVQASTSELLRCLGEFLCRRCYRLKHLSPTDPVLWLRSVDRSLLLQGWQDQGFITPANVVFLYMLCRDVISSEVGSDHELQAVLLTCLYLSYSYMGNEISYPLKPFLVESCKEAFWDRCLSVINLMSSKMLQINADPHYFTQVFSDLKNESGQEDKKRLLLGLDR
Chain of Serine/threonine-protein kinase 4 (Homo sapiens) (Q13043 whole entry): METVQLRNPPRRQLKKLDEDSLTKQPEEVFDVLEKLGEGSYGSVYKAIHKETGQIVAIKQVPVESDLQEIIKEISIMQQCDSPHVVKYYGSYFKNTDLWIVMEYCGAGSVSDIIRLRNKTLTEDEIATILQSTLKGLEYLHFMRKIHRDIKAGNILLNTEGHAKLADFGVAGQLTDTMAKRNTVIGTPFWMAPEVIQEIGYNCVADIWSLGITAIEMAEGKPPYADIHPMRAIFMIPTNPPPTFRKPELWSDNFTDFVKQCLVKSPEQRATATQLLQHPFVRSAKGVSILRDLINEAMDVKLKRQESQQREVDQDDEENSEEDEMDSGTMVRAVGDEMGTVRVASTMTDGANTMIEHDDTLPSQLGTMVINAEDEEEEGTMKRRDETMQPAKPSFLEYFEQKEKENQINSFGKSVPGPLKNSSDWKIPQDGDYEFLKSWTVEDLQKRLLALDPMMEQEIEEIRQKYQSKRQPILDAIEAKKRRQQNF
Chain of Ribosomal protein S6 kinase alpha-1 (Homo sapiens) (Q15418 whole entry): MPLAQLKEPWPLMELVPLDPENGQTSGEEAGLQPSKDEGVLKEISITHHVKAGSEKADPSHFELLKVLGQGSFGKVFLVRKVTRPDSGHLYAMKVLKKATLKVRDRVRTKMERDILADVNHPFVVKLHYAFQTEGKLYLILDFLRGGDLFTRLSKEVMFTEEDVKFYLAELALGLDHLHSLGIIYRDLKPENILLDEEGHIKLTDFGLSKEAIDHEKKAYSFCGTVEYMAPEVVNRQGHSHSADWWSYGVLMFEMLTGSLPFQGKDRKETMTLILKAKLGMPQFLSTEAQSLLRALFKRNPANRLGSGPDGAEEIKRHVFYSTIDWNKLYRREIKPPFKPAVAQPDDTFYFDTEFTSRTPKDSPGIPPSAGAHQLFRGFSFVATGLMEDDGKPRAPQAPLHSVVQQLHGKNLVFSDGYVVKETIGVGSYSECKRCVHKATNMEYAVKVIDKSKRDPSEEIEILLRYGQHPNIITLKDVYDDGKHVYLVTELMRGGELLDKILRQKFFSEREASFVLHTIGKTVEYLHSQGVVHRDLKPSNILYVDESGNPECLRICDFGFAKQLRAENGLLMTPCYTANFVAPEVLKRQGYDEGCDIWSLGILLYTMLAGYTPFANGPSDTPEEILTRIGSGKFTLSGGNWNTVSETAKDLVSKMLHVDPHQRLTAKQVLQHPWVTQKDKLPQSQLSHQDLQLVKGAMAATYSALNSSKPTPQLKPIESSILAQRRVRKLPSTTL
Chain of TGF-beta receptor type-1 (Homo sapiens), P36897 [T204D] (P36897 whole entry T204D): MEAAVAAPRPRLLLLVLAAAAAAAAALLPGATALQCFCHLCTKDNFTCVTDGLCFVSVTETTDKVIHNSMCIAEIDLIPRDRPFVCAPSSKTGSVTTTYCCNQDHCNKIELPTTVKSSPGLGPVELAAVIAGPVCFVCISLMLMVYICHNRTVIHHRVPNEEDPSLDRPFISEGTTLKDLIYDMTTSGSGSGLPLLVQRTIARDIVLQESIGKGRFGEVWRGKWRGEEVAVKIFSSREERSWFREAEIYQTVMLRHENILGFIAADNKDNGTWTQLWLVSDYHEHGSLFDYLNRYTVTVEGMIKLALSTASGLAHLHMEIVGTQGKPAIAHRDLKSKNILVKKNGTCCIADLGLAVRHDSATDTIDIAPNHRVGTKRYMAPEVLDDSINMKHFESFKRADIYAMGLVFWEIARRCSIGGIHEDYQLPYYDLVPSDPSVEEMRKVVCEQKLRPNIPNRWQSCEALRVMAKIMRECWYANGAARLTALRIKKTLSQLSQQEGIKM

C=CS(=O)(=O)Nc1ccc(Cc2ccc3ccccc3c2)cc1
inhibition [1]: -8%
inhibition [2]: 0%
inhibition [3]: -6%
inhibition [4]: 8%
inhibition [5]: 1%
inhibition [6]: 16%
inhibition [7]: -4%
inhibition [8]: 2%
inhibition [9]: -4%
inhibition [10]: 10%
inhibition [11]: 5%
inhibition [12]: 22%
inhibition [13]: -2%
inhibition [14]: 3%
inhibition [15]: 0%
inhibition (Homo sapiens [16]): 15%
inhibition [17]: 9%
inhibition [18]: 13%
inhibition [19]: 4%
inhibition [20]: -5%
inhibition [21]: 3%
inhibition [22]: 16%
inhibition (Homo sapiens [23]): -2%
